Test results as given in patent US20110293558A1, “MATERIAL PROPERTIES OF T CELLS AND RELATED METHODS AND COMPOSITIONS” (Massachusetts Institute of Technology, priority 2010, published 2011).
Entries after “also recorded” stand apart in the source; their conditions may differ.

Assays:
[1] = test system: RBCs re-suspended in saline / Ringer solution; conditions: cited from earlier work
[2] = test system: P. falciparum-infected RBCs (iRBCs); assay: Microfluidic deformability cytometer: cell mobility after artesunate treatment; type: cell-based, human; conditions: for iRBC deformability (cell mobility) after artesunate drug treatment: 0.01, 0.05 or 0.1 μg/ml artesunate, 2, 4 and 6 hours after treatment, synchronized rings ~15% parasitemia; for separation resolution between iRBCs and uRBCs: after artesunate drug treatment vs untreated
From the text: (§1) The device used in this example comprises a series of equally spaced triangular pillar arrays with pore sizes ranging from 2.5 to 4 um (FIG. 55A illustrates the case of 3 um pore size). Compared to the diameter of an average RBC (˜7.5 um), the smaller pore sizes are designed to impose similar mechanical constraints on the cells as if they are passing through blood capillaries and splenic meshwork. Driven by constant pressure gradient in the sub-Pascal-per-micrometer range, RBCs are able to deform substantially at each constriction and traverse along the channel. The dynamic deformability of RBCs is then characterized by their mobility: the ability to deform repeatedly in order to pass through multiple constrictions in series.
(§2) FIG. 55A depicts an experimental schematic of the microfluidic system. A heating chamber (Olympus) was mounted to the inverted microscope stage. Four heaters for the inner water bath, microscope stage, chamber top, and lens were designed to accurately control the ambient temperature inside the chamber. The PDMS-glass bonded device consists of the inlet and outlet reservoirs and main channels with triangular pillar arrays. It was placed inside the heating chamber with only the inlet reservoir connecting to an external syringe via a 20 cm-tubing. The reservoirs were 500×500 μm^2 squares with 20 μm-interspacing cylindrical pillar arrays; these pillar arrays could pre-filter white blood cells from whole blood, allowing only RBCs to pass through the main channels. Each of the parallel channels was 10 pillars wide and 200 pillars long. Along the flow direction, the inter-pillar spacing was 10 μm. This spacing allows deformed cells to recover and ready for subsequent deformations. Perpendicular to the flow direction, the pore size varied from 2.5 to 4 μm for different channels. Cells experience different levels of deformation when passing through these pores.
(§3) FIG. 55B presents microscopic screenshots illustrating both iRBCs and co-cultured uRBCs moving in the microchannel at different temperature conditions. The uninfected cells appear as dark shadows indicated by blue arrows, and the infected cells with thiazole orange (TO) staining appear as bright dots indicated by white arrows. The mobility of individual cells can then be derived by recording the time period for each cell passing through 10 constrictions in series (i.e. equivalent to 200 μm distance travelled). In this example, cell mobility is used to characterize the dynamic deformability of individual RBCs.
(§4) The deformability of both iRBCs and uRBCs were measured at 2, 4 and 6 hours after artesunate drug treatment (FIG. 60). A synchronized culture of rings with ˜15% parasitemia was resuspended at 0.1% hematocrit in malaria culture medium containing 0.01, 0.05 or 0.1 μg/ml of artesunate.
(§5) Layout program CleWin3.0 was used to design the microfluidic device, which consists of a 500×500 μm^2 inlet reservoir, a 500×500 μm^2 outlet reservoir, and parallel capillary channels with triangular pillar arrays (FIG. 55A). Three different pore-size of 2.5, 3.0 and 4.0 μm were designed for the capillary channels to test optimum deformation condition for the experiment. A silicon mold of the device was made using standard silicon processing techniques. The photolithography step was done using a 5× reduction step-and-repeat projection stepper (Nikon NSR2005i9, Nikon Prevision) and reactive-ion etching (RIE) techniques were used to give the mold a final depth of 4.2 μm. Final device was then casted from the silicon mold using polydimethylsiloxane (PDMS) and was sealed by a glass slide using oxygen plasma.
(§6) P. falciparum 3D7A parasites (from Malaria Research and Reference Reagent Source, American Type Culture Collection) were cultured in leukocyte-free human RBCs (Research Blood Components, Brighton Mass.) in RPMI 1640 complete medium as described (Trager and Jensen J. parasitol. 2005). […]

[3] = test system: co-cultured uninfected RBCs (uRBCs); assay: as above; type: cell-based, human; conditions: 0.01, 0.05 or 0.1 μg/ml artesunate; 2, 4 and 6 hours after treatment
From the text: as §1, §2, §3, §4, §5, §6

[4] = test system: parasitemia; conditions: patients treated with artemisinin and its derivatives vs other antimalarial drugs; cited from earlier work
[5] = test system: RBCs; assay: Deformability cytometer: RBC velocity/passage after glutaraldehyde treatment; type: cell-based, human
From the text: The device design includes periodically spaced, triangle-shaped pillars and the gaps between these pillars result in well-controlled constrictions for RBCs to pass. The height of the device was set to 4.2 μm. RBCs were forced to assume a flat orientation before entering each constriction. This height, in addition to filters at the reservoirs, prevented white blood cells from entering the device, and permitted diluted whole blood to be used directly.
A mold of the device was made on a silicon wafer using photolithography and reactive-ion etching techniques. A 5× reduction step-and-repeat projection stepper (Nikon NSR2005i9, Nikon Precision) was used for patterning. The spacing between pillars was 3 μm, and the depth of the device was 4.2 μm. The device was made using standard PDMS casting protocols and bonded to a glass slide.
PBS was mixed with 0.2% w/v Pluronic F-108 (BASF, Mount Olive, N.J.) and 1% w/v Bovine Serum Albumin (BSA) (Sigma-Aldrich, St. Louis, Mo.) as a stock solution to prevent RBC adhesion to the device walls. For the fluorescent bead experiments, 200 nm FluoSpheres europium luminescent microspheres (Molecular Probes, Eugene, Oreg.) diluted to a final concentration of 1.25×10^−5 percent solids were used.
In experiments involving blood, 1 μl of whole blood (˜50% hematocrit) was diluted in 100 μl of the PBS-pluronic-BSA solution for all of the experiments. […]

## CC=O [acetaldehyde]
[1]; prolonged exposure of clean RBCs to acetaldehyde, re-suspension in Ringer solution
  RBC hardening / suspension viscosity: constant suspension viscosity over the full range of hematocrit and shear rates

## C[C@H]1[C@H](OC(=O)CCC(=O)O)O[C@@H]2O[C@@]3(C)CC[C@H]4[C@H](C)CC[C@@H]1[C@@]24OO3 [artesunate]
[2]
  iRBC deformability (cell mobility) after artesunate drug treatment: stiffening effect; also recorded: drop in iRBC deformability is more precipitous than in uRBC
  separation resolution between iRBCs and uRBCs: almost doubled
[2]; listed as Artesunate
  iRBC deformability (cell mobility) after artesunate drug treatment: significant decrease in cell mobility
  separation resolution between iRBCs and uRBCs: doubled
[2]; 2 and 4 hours after artesunate treatment, iRBCs and uRBCs both measured
  mobility decrease: smaller and less pronounced mobility decrease
[2]; after 4 hour drug treatment, dosage range 0.01 to 0.1 μg/ml
  dose dependence of mobility changes: no statistically significant dose dependence
[3]
  uRBC deformability (cell mobility) after artesunate drug treatment: stiffening effect; also recorded: stiffened considerably

## C[C@@H]1CC[C@H]2[C@@H](C)C(=O)O[C@@H]3O[C@@]4(C)CC[C@@H]1[C@]32OO4 [artemisinin]
[4]
  decline in parasitemia: more rapid decline in parasitemia

## O=CCCCC=O [glutaraldehyde]
[5]; 30 minutes in PBS, approx. 0.61 Pa/μm, FIG. 5B
  RBC stiffness / velocity with increasing glutaraldehyde concentration: progressively stiffer with decreasing velocity
[5]; glutaraldehyde concentrations greater than 0.003%
  RBC passage into the channel: most RBCs were held up at the entrance to the channel

## Fibrinogen
[1]; fibrinogen added progressively to washed RBCs in pure saline
  suspension viscosity: increase in viscosity with increasing fibrinogen concentration at low deformation rates
